Structures can show the parent of a compound that is named as a salt.

CK2A1 (CK2α/β), sequence (P68400 whole entry, species assumed): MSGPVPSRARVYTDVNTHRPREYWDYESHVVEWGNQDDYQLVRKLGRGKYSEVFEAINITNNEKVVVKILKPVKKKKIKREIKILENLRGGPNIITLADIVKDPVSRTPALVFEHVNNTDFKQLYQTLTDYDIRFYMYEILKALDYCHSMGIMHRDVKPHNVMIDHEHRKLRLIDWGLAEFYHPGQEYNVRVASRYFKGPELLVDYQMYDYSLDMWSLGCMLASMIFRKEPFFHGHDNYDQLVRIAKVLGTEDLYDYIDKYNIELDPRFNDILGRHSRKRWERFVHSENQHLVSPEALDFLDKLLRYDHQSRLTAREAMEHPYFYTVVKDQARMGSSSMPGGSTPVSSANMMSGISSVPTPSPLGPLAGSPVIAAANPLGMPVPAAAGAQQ
CK2A1 (CK2α/β), sequence (P67870 whole entry partner, species assumed): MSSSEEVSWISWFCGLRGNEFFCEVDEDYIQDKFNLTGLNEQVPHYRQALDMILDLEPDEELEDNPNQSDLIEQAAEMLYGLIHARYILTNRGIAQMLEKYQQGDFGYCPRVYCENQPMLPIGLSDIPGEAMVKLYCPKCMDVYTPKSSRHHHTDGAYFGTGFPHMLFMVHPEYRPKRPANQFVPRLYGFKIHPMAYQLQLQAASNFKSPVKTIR

The assay concerns the target CK2A1 (CK2α/β) (Homo sapiens, UniProt P68400). Description: CK2 kinase assay, CK2A1 (CK2α/β). It is filed as biochemical. To be noted: Table A; read-out: CK2A1 (CK2α/β) (IC50).
Description: For example, in vitro protein kinase assays may be conducted with a relevant purified protein kinase and an appropriate synthetic substrate to determine the inhibitory activity of the compounds. […] Reaction mixtures were incubated at 30° C. for 1 hour, and reaction products were captured by binding to phosphocellulose (P81) filter plates. Incorporation of radioactive phosphate into the peptide substrate was determined by liquid scintillation counting.
The inhibitory activity of the instant compounds may also be measured by recombinant CK2 holoenzyme kinase assays. The assays were performed in U-bottom 384-well plates. […] The reaction was initiated by the combination of bacterially expressed, CK2 α/β or CK2 holoenzyme with substrates and test compounds. The reaction was incubated at room temperature for 60 minutes and terminated by adding 30 μl of 35 mM EDTA to each sample. The reaction mixture was analyzed on the Caliper LABCHIP® 3000 (Caliper, Hopkinton, Mass.) by electrophoretic separation of the fluorescent substrate and phosphorylated product. […] Compounds were dissolved at 10 mM in dimethylsulfoxide (DMSO) and evaluated at eleven concentrations. IC50 values were derived by non-linear regression analysis.
In the case of `COC(=O)N[C@H]1CN(C2CN(c3cc(C#N)cc(Nc4nc(NC5CC5)c5ncc(C#N)n5n4)c3Cl)C2)C[C@@H]1OC` (racemic) [Example 297, (+/−) methyl ((3S,4S)-1-(1-(2-chloro-5-cyano-3-((7-cyano-4-(cyclopropylamino)imidazo[2,1-f][1,2,4]triazin-2-yl)amino)phenyl)-3-azetidinyl)-4-methoxy-3-pyrrolidinyl)carbamate], the IC50 was found to be 3.05 nM. Then `N#Cc1cc(Nc2nc(NC3CC3)c3ncc(C#N)n3n2)c(Cl)c(N2CCOC(C(=O)N3CCOCC3)C2)c1` (racemic) [Example 300, (+/−)2-((2-chloro-5-cyano-3-(2-(morpholine-4-carbonyl)morpholino)phenyl)amino)-4-(cyclopropylamino)imidazo[2,1-J][1,2,4]triazine-7-carbonitrile], with 1.62 nM; and `N#Cc1cc(Nc2nc(NC3CC3)c3ncc(C#N)n3n2)c(Cl)c(N2CC[C@@H](NC3COC3)[C@H](O)C2)c1` (racemic) [Example 301, (+/−)2-((2-chloro-5-cyano-3-((3R,4R)-3-hydroxy-4-(oxetan-3-ylamino)piperidin-1-yl)phenyl)amino)-4-(cyclopropylamino)imidazo[2,1-f][1,2,4]triazine-7-carbonitrile, HCl], with 0.72 nM; and `CO[C@@H]1CN(c2cc(C#N)cc(Nc3nc(NC4CC4)c4ncc(C#N)n4n3)c2Cl)C[C@H]1O` (racemic) [Example 305, (+/−)-2-((2-chloro-5-cyano-3-((3R,4R)-3-hydroxy-4-methoxypyrrolidin-1-yl)phenyl)amino)-4-(cyclopropylamino)imidazo[2,1-f][1,2,4]triazine-7-carbonitrile, HCl], with 0.65 nM.

As to `N#Cc1cc(Nc2nc(NC3CC3)c3ncc(C#N)n3n2)c(Cl)c(N2CC[C@@H](N3CCOCC3)[C@H](O)C2)c1` (racemic) [Example 306, (+/−)-2-((2-chloro-5-cyano-3-((3R,4R)-3-hydroxy-4-morpholinopiperidin-1-yl)phenyl)amino)-4-(cyclopropylamino)imidazo[2,1-f][1,2,4]triazine-7-carbonitrile], the IC50 came out at 1.29 nM. Then `N#Cc1cc(Nc2nc(NC3CC3)c3ncc(C#N)n3n2)c(Cl)c(N2CC[C@H]3NC(=O)CO[C@@H]3C2)c1` (racemic) [Example 310, (+/−)-2-((2-chloro-5-cyano-3-((4aR,8aR)-2-oxohexahydro-1H-pyrido[3,4-b][1,4]oxazin-6(7H)-yl)phenyl)amino)-4-(cyclopropylamino)imidazo[2,1-f][1,2,4]triazine-7-carbonitrile, 2HCl], with 2.87 nM; and `N#Cc1cc(Nc2nc(NC3CC3)c3ncc(C#N)n3n2)c(Cl)c(N2CCN(C3COC3)C(CF)C2)c1` (racemic) [Example 312, (+/−)2-((2-chloro-5-cyano-3-(3-(fluoromethyl)-4-(oxetan-3-yl)piperazin-1-yl)phenyl)amino)-4-(cyclopropylamino)imidazo[2,1-f][1,2,4]triazine-7-carbonitrile], with 0.37 nM; and `CCNc1nc(Nc2cc(C#N)cc(N3CC[C@@H](NC(=O)OC)[C@H](OC(=O)C(C)OP(=O)(O)O)C3)c2Cl)nn2c(C#N)cnc12` (mixture of isomers) [Example 339, (+/−)-(3R,4R)-1-(2-chloro-5-cyano-3-((7-cyano-4-(ethylamino)imidazo[2,1-f][1,2,4]triazin-2-yl)amino)phenyl)-4-((methoxycarbonyl)amino)piperidin-3-yl 2-(phosphonooxy)propanoate], with 0.47 nM. Then `CCNc1nc(Nc2cc(C#N)cc(N3CCOC(C(C)(C)O)C3)c2Cl)nn2c(C#N)cnc12` (racemic) [Example 361, (+/−) 2-((2-chloro-5-cyano-3-(2-(1-hydroxy-1-methylethyl)-4-morpholinyl)phenyl)amino)-4-(ethylamino)imidazo[2,1-f][1,2,4]triazine-7-carbonitrile], with 0.85 nM; and `CCNc1nc(Nc2cc(C#N)cc(N3CCC(NC)C3)c2Cl)nn2c(C#N)cnc12` (racemic) [Example 362, (+/−) 2-((2-chloro-5-cyano-3-(3-(methylamino)-1-pyrrolidinyl)phenyl)amino)-4-(ethylamino)imidazo[2,1-f][1,2,4]triazine-7-carbonitrile], with 0.84 nM. Turning to `CCNc1nc(Nc2cc(C#N)cc(N3CC[C@H]4NC(=O)CO[C@@H]4C3)c2Cl)nn2c(C#N)cnc12` (racemic) [Example 370, (+/−)-2-((2-chloro-5-cyano-3-((4aR,8aR)-2-oxohexahydro-1H-pyrido[3,4-b][1,4]oxazin-6(7H)-yl)phenyl)amino)-4-(ethylamino)imidazo[2,1-f][1,2,4]triazine-7-carbonitrile], the IC50 came out at 0.35 nM. Turning to `CCNc1nc(Nc2cc(C#N)cc(N3CC[C@H]4NCCO[C@@H]4C3)c2Cl)nn2c(C#N)cnc12` (racemic) [Example 371, (+/−)-2-((2-chloro-5-cyano-3-((4aR,8aR)-hexahydro-1H-pyrido[3,4-b][1,4]oxazin-6(7H)-yl)phenyl)amino)-4-(ethylamino)imidazo[2,1-f][1,2,4]triazine-7-carbonitrile], the IC50 came to 3.61 nM. Then `CCNc1nc(Nc2cc(C#N)cc(N3CC[C@@H]4[C@@H](C3)OCCN4C(=O)OC)c2Cl)nn2c(C#N)cnc12` (racemic) [Example 372, (+/−)-(4aR,8aR)-methyl 6-(2-chloro-5-cyano-3-((7-cyano-4-(ethylamino)imidazo[2,1-f][1,2,4]triazin-2-yl)amino)phenyl)octahydro-1H-pyrido[3,4-b][1,4]oxazine-1-carboxylate], with 0.94 nM; and `CCNc1nc(Nc2cc(C#N)cc(N3CC[C@@H]4[C@@H](C3)OCCN4C)c2Cl)nn2c(C#N)cnc12` (racemic) [Example 373, (+/−)-2-((2-chloro-5-cyano-3-((4aR,8 aR)-1-methylhexahydro-1H-pyrido[3,4-b][1,4]oxazin-6(7H)-yl)phenyl)amino)-4-(ethylamino)imidazo[2,1-f][1,2,4]triazine-7-carbonitrile], with 0.99 nM; and `N#Cc1cc(Nc2nc(NC3CC3)c3ncc(C#N)n3n2)c(Cl)c(C2CCN(CC(O)CF)CC2)c1` (racemic) [Example 380, (+/−)-2-((2-chloro-5-cyano-3-(1-(3-fluoro-2-hydroxypropyl)-4-piperidinyl)phenyl)amino)-4-(cyclopropylamino)imidazo[2,1-f][1,2,4]triazine-7-carbonitrile], with 0.65 nM.

As for `CCNc1nc(Nc2cc(C(N)=O)cc(N3CC[C@H](NC(=O)OC)[C@@H](O)C3)c2Cl)nn2c(C#N)cnc12` (racemic) [Example 389, (+/−)-methyl ((3R,4R)-1-(5-carbamoyl-2-chloro-3-((7-cyano-4-(ethylamino)imidazo[2,1-f][1,2,4]triazin-2-yl)amino)phenyl)-3-hydroxypiperidin-4-yl)carbamate], the IC50 worked out at 3.39 nM.

As to `N#Cc1cc(Nc2nc(NC3CC3)c3ncc(C#N)n3n2)c(Cl)c(OC2CCN(C3COC3)C2)c1` (racemic) [Example 426, (+/−)-2-((2-chloro-5-cyano-3-((1-(oxetan-3-yl)pyrrolidin-3-yl)oxy)phenyl)amino)-4-(cyclopropylamino)imidazo[2,1-f][1,2,4]triazine-7-carbonitrile], the IC50 turned out to be 0.38 nM. Regarding `CN1CC2CC1CN2c1cc(C#N)cc(Nc2nc(NCC(F)(F)F)c3ncc(C#N)n3n2)c1Cl` (racemic) [Example 430, (+/−)-2-((2-chloro-5-cyano-3-((1R,4R)-5-methyl-2,5-diazabicyclo[2.2.1]heptan-2-yl)phenyl)amino)-4-((2,2,2-trifluoroethyl)amino)imidazo[2,1-f][1,2,4]triazine-7-carbonitrile], the IC50 was 0.97 nM. As to `N#Cc1cc(Nc2nc(NC3CC3)c3ncc(C#N)n3n2)c(Cl)c(N2CCN3C[C@H](O)C[C@H]3C2)c1` (racemic) [Example 434, (+/−)-2-((2-chloro-5-cyano-3-((7R,8aS)-7-hydroxyhexahydropyrrolo[1,2-a]pyrazin-2(1H)-yl)phenyl)amino)-4-(cyclopropylamino)imidazo[2,1-f][1,2,4]triazine-7-carbonitrile], the IC50 is 0.61 nM. Then `N#Cc1cc(Nc2nc(NC3CC3)c3ncc(C#N)n3n2)c(Cl)c(N2CCN3C[C@H](O)C[C@@H]3C2)c1` (racemic) [Example 435, (+/−)-2-((2-chloro-5-cyano-3-((7R,8aR)-7-hydroxyhexahydropyrrolo[1,2-a]pyrazin-2(1H)-yl)phenyl)amino)-4-(cyclopropylamino)imidazo[2,1-f][1,2,4]triazine-7-carbonitrile], with 1.13 nM; and `CCNc1nc(Nc2cc(C#N)cc(N3CCN4C[C@H](O)C[C@H]4C3)c2Cl)nn2c(C#N)cnc12` (racemic) [Example 436, (+/−)-2-((2-chloro-5-cyano-3-((7R,8aS)-7-hydroxyhexahydropyrrolo[1,2-a]pyrazin-2(1H)-yl)phenyl)amino)-4-(ethylamino)imidazo[2,1-f][1,2,4]triazine-7-carbonitrile], with 2.51 nM. With `N#Cc1cc(Nc2nc(NC3CC3)c3ncc(C#N)n3n2)c(Cl)c(N2CCN3C[C@@H](F)C[C@H]3C2)c1` (racemic) [Example 437, (+/−)-2-((2-chloro-5-cyano-3-((7R,8aR)-7-fluorohexahydropyrrolo[1,2-a]pyrazin-2(1H)-yl)phenyl)amino)-4-(cyclopropylamino)imidazo[2,1-f][1,2,4]triazine-7-carbonitrile] the figure was 0.83 nM; with `N#Cc1cc(Nc2nc(NC3CC3)c3ncc(C#N)n3n2)c(Cl)c(N2CCN3CC[C@H](O)[C@H]3C2)c1` (racemic) [Example 438, (+/−)-2-((2-chloro-5-cyano-3-((8R,8aS)-8-hydroxyhexahydropyrrolo[1,2-a]pyrazin-2(1H)-yl)phenyl)amino)-4-(cyclopropylamino)imidazo[2,1-f][1,2,4]triazine-7-carbonitrile], 0.73 nM; with `N#Cc1cc(Nc2nc(NC3CC3)c3ncc(C#N)n3n2)c(Cl)c(OC2CNCCOC2)c1` (racemic) [Example 440, (+/−)-2-((3-((1,4-oxazepan-6-yl)oxy)-2-chloro-5-cyanophenyl)amino)-4-(cyclopropylamino)imidazo[2,1-f][1,2,4]triazine-7-carbonitrile], 0.88 nM.

(Values after patent publication US9273057B2 (Bristol-Myers Squibb Company, priority 2012, dated 2016).)
